Experimental data from PMC7003794, “Chemical Proteomics and Phenotypic Profiling Identifies the Aryl Hydrocarbon Receptor as a Molecular Target of the Utrophin Modulator Ezutromid” (Angewandte Chemie (International Ed. in English), 2020).

Target: T1, aryl hydrocarbon receptor (AhR) (Mus musculus, UniProt P30561)
T1 construct: purified mouse AhR:ARNT complex; with ARNT
Test: fluorescence quenching assay (intrinsic ligand fluorescence) with purified AhR:ARNT
Assay type: binding

T1 sequence (P30561 10-848): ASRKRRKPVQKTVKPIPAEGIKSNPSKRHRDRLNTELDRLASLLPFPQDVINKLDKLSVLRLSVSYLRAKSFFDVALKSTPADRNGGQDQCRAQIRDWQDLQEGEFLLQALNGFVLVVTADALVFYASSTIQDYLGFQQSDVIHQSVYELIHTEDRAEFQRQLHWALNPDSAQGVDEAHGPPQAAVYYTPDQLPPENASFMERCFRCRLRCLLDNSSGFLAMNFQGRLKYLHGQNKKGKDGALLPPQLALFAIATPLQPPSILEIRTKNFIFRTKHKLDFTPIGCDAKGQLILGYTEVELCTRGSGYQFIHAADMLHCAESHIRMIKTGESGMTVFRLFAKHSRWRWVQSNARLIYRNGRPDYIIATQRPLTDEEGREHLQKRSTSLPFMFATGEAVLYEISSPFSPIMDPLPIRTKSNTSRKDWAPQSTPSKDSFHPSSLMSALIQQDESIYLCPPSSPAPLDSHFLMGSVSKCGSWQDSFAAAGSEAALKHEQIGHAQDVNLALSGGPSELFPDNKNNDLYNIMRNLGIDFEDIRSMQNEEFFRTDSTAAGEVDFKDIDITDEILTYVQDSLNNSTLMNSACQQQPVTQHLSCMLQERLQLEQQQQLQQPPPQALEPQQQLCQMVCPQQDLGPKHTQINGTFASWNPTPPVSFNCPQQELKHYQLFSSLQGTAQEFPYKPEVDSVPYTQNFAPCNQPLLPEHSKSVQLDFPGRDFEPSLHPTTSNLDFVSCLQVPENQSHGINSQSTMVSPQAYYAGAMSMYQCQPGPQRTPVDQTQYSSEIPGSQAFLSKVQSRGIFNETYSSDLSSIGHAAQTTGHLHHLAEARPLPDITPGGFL
T1 sequence (P53762 2-791 partner): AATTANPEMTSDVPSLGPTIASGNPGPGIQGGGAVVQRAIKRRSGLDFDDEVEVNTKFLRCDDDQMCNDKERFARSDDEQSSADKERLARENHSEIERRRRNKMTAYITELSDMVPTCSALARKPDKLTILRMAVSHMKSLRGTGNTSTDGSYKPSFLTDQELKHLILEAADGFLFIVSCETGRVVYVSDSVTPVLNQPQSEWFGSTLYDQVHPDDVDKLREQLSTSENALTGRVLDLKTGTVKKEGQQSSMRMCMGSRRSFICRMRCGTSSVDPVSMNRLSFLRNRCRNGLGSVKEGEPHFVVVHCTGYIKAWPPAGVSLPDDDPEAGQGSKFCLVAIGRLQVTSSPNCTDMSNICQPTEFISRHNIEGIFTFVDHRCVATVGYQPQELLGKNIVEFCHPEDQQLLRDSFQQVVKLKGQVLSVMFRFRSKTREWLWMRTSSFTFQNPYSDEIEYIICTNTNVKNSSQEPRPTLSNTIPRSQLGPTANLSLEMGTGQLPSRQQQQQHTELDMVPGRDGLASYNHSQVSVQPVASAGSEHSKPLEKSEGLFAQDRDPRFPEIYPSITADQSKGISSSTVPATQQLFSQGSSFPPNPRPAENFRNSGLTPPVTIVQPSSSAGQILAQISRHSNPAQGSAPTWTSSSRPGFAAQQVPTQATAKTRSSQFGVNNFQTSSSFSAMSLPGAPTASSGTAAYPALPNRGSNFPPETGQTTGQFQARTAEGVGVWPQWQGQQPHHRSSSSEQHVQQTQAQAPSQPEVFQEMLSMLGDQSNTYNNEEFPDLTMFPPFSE

Kd: 50.1 ± 22.1 nM
SMILES: CCS(=O)(=O)c1ccc2oc(-c3ccc4ccccc4c3)nc2c1 [compound 1, ezutromid]
